Data on 22 molecules can be found in ChEMBL document CHEMBL1811852, “In vitro cytotoxic activity of abietane diterpenes from Peltodon longipes as well as Salvia miltiorrhiza and Salvia sahendica” (Bioorg Med Chem, 2011).

One assay concerns MIA PaCa-2. The experiment in a line: Cytotoxicity against human MIAPaCa2 cells after 24 hrs by MTT assay. The settings on record: MIA PaCa-2, 24 h. Format: functional, cell-based. On the technique in general: Tetrazolium assays rely on reduction of a dye to a coloured formazan, in cell work by metabolically active cells.
Assay [1] can be described thus: Cytotoxicity against human MV-3 cells after 24 hrs by MTT assay. The following applies: MV-3, 24 h. Format: functional, cell-based.

Some results are limits rather than exact numbers.

Turning to `CC(C)C1=C(O)C(=O)C2=C(C(=O)C[C@H]3C(C)(C)CCC[C@]23C)C1=O`, the IC50 (commonly the concentration at which inhibition is half-maximal) in the assay with MIA PaCa-2 was 30.1 µM; in assay [1], 65.8 µM.
Regarding `CCO[C@@H]1C[C@H]2C(C)(C)CCC[C@]2(C)C2=C1C(=O)C(C(C)C)=C(O)C2=O`, the IC50 is over 100 µM with MIA PaCa-2 and over 80 µM in assay [1].
As for `COc1c(O)c(C(C)C)cc2c1[C@@]1(C)CCCC(C)(C)[C@@H]1CC2=O`, the results for the IC50 (with MIA PaCa-2; in assay [1]) were 34.9 µM and 32.3 µM, respectively.
In turn, `CC1=CCCc2c1ccc1c2C(=O)C(=O)c2c(C)coc2-1` returned an IC50 in the assay on MIA PaCa-2 of 5.6 µM.
Regarding `CC(C)C1=Cc2ccc3c(c2C(=O)C1=O)C(=O)CCC3(C)C`, it took 29.9 µM to reach half-maximal inhibition in the assay on MIA PaCa-2 (IC50).
Regarding `CC(=O)O[C@@H]1C[C@H]2C(C)(C)CCC[C@]2(C)C2=C1C(=O)C(C(C)C)=C(O)C2=O`, the values for the IC50 (in the assay on MIA PaCa-2; in assay [1]) were 4.7 µM and 7.4 µM, respectively.
`CC[C@@]1(O)C(=O)OCc2c1cc1n(c2=O)Cc2cc3ccccc3nc2-1` [CAMPTOTHECIN] showed an IC50 in the assay on MIA PaCa-2 of 0.4 µM.
For `COc1c(C(C)C)cc2c(c1O)[C@@]1(C)CCCC(C)(C)[C@@H]1CC2=O` [CRYPTOJAPONOL], the half-maximal inhibitory concentration (IC50) in the assay on MIA PaCa-2 is over 100 µM; in assay [1], over 80 µM.
In turn, `C[C@H]1COC2=C1C(=O)C(=O)c1c2ccc2c1CCCC2(C)C` [CRYPTOTANSHINONE] displayed an IC50 in the assay on MIA PaCa-2 of 5.8 µM.
As for `CC(C)C1=C(O)C(=O)c2c(ccc3c2CCCC3(C)C)C1=O` [DEOXYNEOCRYPTOTANSHINONE], the IC50 is over 100 µM with MIA PaCa-2 and over 150 µM in assay [1].
Consider `CC(C)c1cc2c(cc1O)[C@@]1(C)CCCC(C)(C)[C@@H]1CC2` [FERRUGINOL], for which the IC50 with MIA PaCa-2 was found to be 25.9 µM.
Consider `CC(C)C1=C(O)C(=O)C2=C(C1=O)[C@H](O)C[C@H]1C(C)(C)CCC[C@]21C` [HORMINONE], for which the results for the IC50 (in the assay with MIA PaCa-2; in assay [1]) were 27.5 µM and 16.7 µM, respectively.
The matching figures for `COc1c(C(C)C)cc2c(c1O)[C@@]1(C)CCCC(C)(C)[C@@H]1[C@@H](O)C2` [IGUESTOL]: 41.3 µM and 65.9 µM.
The matching figures for `COc1c(O)c2c(c(O)c1C(C)C)C(=O)C[C@H]1C(C)(C)CCC[C@]21C` [INUROYLEANOL]: over 80 µM and over 120 µM.
Molecule `CC(C)c1cc2ccc3c(c2c(O)c1O)C(=O)CCC3(C)C` [MILTIODIOL] returned an IC50 in the assay on MIA PaCa-2 of 66.3 µM.
`CC(C)C1=Cc2ccc3c(c2C(=O)C1=O)CCCC3(C)C` [MILTIRONE]: in the assay with MIA PaCa-2, the IC50 stood at 22.5 µM.
In the case of `COc1c(O)c(C(C)C)c(O)c2c1[C@@]1(C)CCCC(C)(C)[C@@H]1CC2=O` [ORTHOSIPHONOL], the values for the IC50 (with MIA PaCa-2; in assay [1]) were over 100 µM and over 80 µM, respectively.
The matching figures for `CC(C)C1=C(O)C(=O)C2=C(CC[C@H]3C(C)(C)CCC[C@]23C)C1=O` [ROYLEANONE]: 32.5 µM and over 80 µM.
The molecule `CC(C)=CCCc1c(C)ccc2c1C(=O)C=C(C(C)C)C2=O` [SAHANDINONE] displayed an IC50 in the assay with MIA PaCa-2 of 10.2 µM.
As for `CC(C)c1cc2c(cc1O)[C@@]1(C)CCCC(C)(C)[C@@H]1CC2=O` [SUGIOL], the IC50 in the assay on MIA PaCa-2 came to 17.9 µM; in assay [1] it was 34.1 µM.
`Cc1coc2c1C(=O)C(=O)c1c-2ccc2c1CCCC2(C)C` [TANSHINONE IIA] registered an IC50 with MIA PaCa-2 of 1.9 µM.
In the assay on MIA PaCa-2, `Cc1coc2c1C(=O)C(=O)c1c-2ccc2c(C)cccc12` [TANSHINONE I] had an IC50 of 10.5 µM.
